Test results from patent US5543410A, “Pharmacological use of phthaloylhydrazide derivatives; combination and application thereof” (L.I.M.A.D. Limited, priority 1993, dated 1996).

Experiments:
[1] = aqueous solutions, sodium salt
skin diseases = settings: water-soluble applications and ointments
[2] = system: proctitis attributable to radiation therapy; settings: in vivo
From the text: B., a patient who was […], complained of burning sensations in the anus, along with frequent and painful urination, after having received radiation therapy for a period of forty-five days. During a rectosigmoidoscopy examination, intense edema and contact hemorrhaging within the rectal mucosae were observed above the tumor. The diagnosis was: proctitis and cystitis arising from radiation therapy. On account of a lack of specific therapeutic measures, the drug was prescribed for the patient according to a dose of 100 mg per day.

[3] = system: piglets affected by dysentery; experiment: dysentery in piglets; type: in vivo
Description: Experiments were performed with piglets weighing from 30 to 40 kgs, which were affected by dysentery.
Nevertheless, symptoms reappeared six to seven hours later in one group of animals. This factor rendered repeated administration of the drug necessary.

[4] = system: Sprague-Dawley Rats' Lipid Metabolism and Serum Lipoproteins; settings: reducing serum cholesterol; cited from earlier work
metabolic products = type: in vivo; settings: metabolite

Nc1cccc2c(=O)[nH][nH]c(=O)c12
period remaining fully active [1]: sixty to eighty | effectiveness in external use (skin diseases): more effective | effectiveness in proctitis attributable to radiation therapy [2]: effective for proctitis attributable to radiation therapy | time to improvement of condition, diarrhea ceased ([3]; 50 mg/kg, first series): sixty | time to reappearance of symptoms ([3]; 50 mg/kg, first series, one group of animals): six to seven

O=c1[nH][nH]c(=O)c2ccccc12 [2,3-dihydrophthalazine-1,4-dione]
activity [4]: extremely high level of activity

Nc1ccc2c(=O)[nH][nH]c(=O)c2c1 [4-aminophthaloylhydrazide]
therapeutic effect ([3]; 10, 25, and 50 mg/kg, third series): relatively insignificant

Nc1ccc(C(=O)O)c(C(=O)O)c1 [5-aminophthalic acid]
excretion unmodified (metabolic products): Most of the aminophthalic acid is expelled from the body without undergoing modification
